Results as given in article PMC6788984, “High-potency ligands for DREADD imaging and activation in rodents and monkeys” (Nature Communications, 2019).
pEC50, pKi: −log10 of the molar value. “And” between values parts separate entries of the source, which are not always exact repeats. Equal values may be shown once. “Also recorded” adds a separate entry of the source. Read-outs that look alike come from different tables or passages of the source.

Experiments:
hM4Di [1] = target: T1, hM4Di (Homo sapiens, UniProt P08173, A203G/Y113C); experiment: Locomotor activity in D1-hM4Di mice
T1 sequence (P08173 1-479 Y113C/A203G): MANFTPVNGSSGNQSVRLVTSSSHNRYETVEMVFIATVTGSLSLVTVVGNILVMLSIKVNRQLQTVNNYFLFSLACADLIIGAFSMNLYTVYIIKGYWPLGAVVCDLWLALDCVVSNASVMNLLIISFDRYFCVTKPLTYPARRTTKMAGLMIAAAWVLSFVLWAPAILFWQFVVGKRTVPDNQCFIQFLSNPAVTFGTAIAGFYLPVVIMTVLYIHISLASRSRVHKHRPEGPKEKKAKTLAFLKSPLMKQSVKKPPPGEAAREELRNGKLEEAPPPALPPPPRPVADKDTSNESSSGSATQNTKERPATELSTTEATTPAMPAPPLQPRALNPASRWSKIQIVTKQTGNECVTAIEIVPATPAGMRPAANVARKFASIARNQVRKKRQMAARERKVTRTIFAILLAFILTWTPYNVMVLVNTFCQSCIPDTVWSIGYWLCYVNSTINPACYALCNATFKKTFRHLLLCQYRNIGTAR
Excerpt: (§2) Wild-type mice (C57BL/6J) were ordered from Jackson Laboratories and rats (Sprague–Dawley) were ordered from Charles River. Rodents were male and ordered at ~6 weeks of age. Transgenic mice were bred at NIDA breeding facility. […] Three male rhesus monkeys (Macaca mulatta) weighed 8–12 kg. All experiments and procedures complied with all relevant ethical regulations for animal testing and research and followed NIH guidelines and were approved by each institute’s animal care and use committees.
(§3) Ten minutes after injection, animals were placed in an open field arena (Opto-varimex ATM3, Columbus Instruments) and their locomotor activity was tracked during 60 min as infrared beam crossings and traveled distance was converted to cm. Animals were repeatedly tested on consecutive sessions (after an initial habituation session with no drug treatment) in a counterbalanced design.

[2] = test system: untransfected HEK-293 cells; experiment: Negative controls of the functional assays: HEK-293 cells without DREADD; assay type: cell-based, human; conditions: for functional response, BRET (Go-alpha-Rluc8, beta1, gamma2-mVenus), no DREADD / functional response, GCaMP6f, no DREADD: HEK-293 cells
Method: BRET assays were performed to detect receptor ligand-induced Gαo1 protein activation. […] Forty-eight hour after transfection cells were harvested, washed and resuspended in phosphate-buffered saline (PBS). Approximately, 200,000 cells/well were distributed in 96-well plates, and 5 µM Coelenterazine H (substrate for luciferase) was added to each well. Five minutes after addition of Coelenterazine H, ligands were added to each well. The fluorescence of the acceptor was quantified (excitation at 500 nm and emission at 540 nm for 1-s recordings) in a PheraStar FSX plate reader (BMG Labtech) to confirm the constant expression levels across experiments. In parallel, the BRET signal from the same batch of cells was determined as the ratio of the light emitted by mVenus (510–540 nm) over that emitted by RLuc (485 nm). Results were calculated for the BRET change (BRET ratio for the corresponding drug minus BRET ratio in the absence of the drug) 5 min after the addition of the ligands.
Intracellular Ca^2+ concentration was monitored using the fluorescent Ca^2+ biosensor GCaMP6f. HEK-293 cells were transfected with 7 µg/dish of the cDNA encoding for hM3Dq (Addgene #89149) or hM4Di (Addgene #89150) and 7 µg/dish of GCaMP6. Forty-eight hours after transfection, cells were harvested, washed, resuspended in Mg^2+-free Locke’s buffer pH 7.4 (154 mM NaCl, 5.6 mM KCl, 3.6 mM NaHCO3, 2.3 mM CaCl2, and 5 mM HEPES) containing 5.6 mM of glucose and approximately 200,000 cells/well were distributed in black 96-well plates. Increasing concentrations of the indicated compound were added to the cells and fluorescence intensity (excitation at 480 nm, emission at 530 nm) was measured at 18-s intervals during 250 s using a PHERAstar FSX (BMG Labtech). The net change in intracellular Ca^2+ concentration was expressed as F − F0 where F is the fluorescence at a given concentration of ligand and F0 is the average of the baseline values (fluorescence values of buffer-treated wells).

hM4Di [3] = target: T1, hM4Di; experiment: [3H]clozapine competition binding, membranes of HEK-293 cells expressing hM4Di
Method: (§4) Cells were routinely tested for myclopasma contamination (MycoAlert® Mycoplasma Detection Kit, Lonza). Cells were seeded on 60 cm^2 dishes at 4 × 10^6 cells/dish 24 h before transfection. The indicated amount of cDNA was transfected into HEK-293 cells using polyethylenimine (PEI; Sigma-Aldrich) in a 1–2 DNA:PEI ratio. Cell harvesting for radioligand binding experiments or signaling assays were performed approximately 48 h after transfection.
(§5) Cells were suspended in Tris-HCl 50 mM pH 7.4 supplemented with protease inhibitor cocktail (1:100, Sigma-Aldrich, St. Louis, MO, USA). The dissected brain tissue was diluted in Tris-HCl 50 mM buffer supplemented with protease inhibitor cocktail (1:1000). HEK-293 cells or brain tissue were disrupted with a Polytron homogenizer (Kinematica, Basel, Switzerland). Homogenates were centrifuged at 48,000g (50 min, 4 °C) and washed twice in the same conditions to isolate the membrane fraction. Protein was quantified by the bicinchoninic acid method (Pierce). […] In all cases, free and membrane-bound radioligand were separated by rapid filtration of 500-μl aliquots in a 96-well plate harvester (Brandel, Gaithersburg, MD, USA) and washed with 2 ml of ice-cold Tris-HCl buffer. […] One-site competition curves were fitted using Prism 7 (GraphPad Software, La Jolla, CA, USA). Ki values were calculated using the Cheng–Prusoff equation.

hM3Dq [4] = target: T2, hM3Dq (Homo sapiens, UniProt P20309, A239G/Y149C); experiment: [3H]clozapine competition binding, membranes of HEK-293 cells expressing hM3Dq
T2 sequence (P20309 whole entry Y149C/A239G): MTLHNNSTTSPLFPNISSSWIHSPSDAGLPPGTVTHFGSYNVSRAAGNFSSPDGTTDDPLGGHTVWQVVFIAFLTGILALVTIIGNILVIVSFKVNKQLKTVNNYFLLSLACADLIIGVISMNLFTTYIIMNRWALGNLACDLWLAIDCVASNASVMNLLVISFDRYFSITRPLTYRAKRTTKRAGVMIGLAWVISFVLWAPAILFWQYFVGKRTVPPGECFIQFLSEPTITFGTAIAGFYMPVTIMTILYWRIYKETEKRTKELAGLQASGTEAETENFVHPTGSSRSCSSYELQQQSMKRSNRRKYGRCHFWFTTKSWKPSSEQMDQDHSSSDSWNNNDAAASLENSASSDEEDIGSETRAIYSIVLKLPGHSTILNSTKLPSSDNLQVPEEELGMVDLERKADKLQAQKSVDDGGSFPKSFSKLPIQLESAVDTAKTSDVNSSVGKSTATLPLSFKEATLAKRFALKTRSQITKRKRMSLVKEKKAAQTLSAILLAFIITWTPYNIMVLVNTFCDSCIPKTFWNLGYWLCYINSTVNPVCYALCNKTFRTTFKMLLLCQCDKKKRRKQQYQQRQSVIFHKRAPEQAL
Method: as §4, §5

hM4Di [5] = target: T1, hM4Di; experiment: BRET Galpha-o1 protein activation assay in HEK-293 cells transfected with hM4Di; assay type: cell-based; parameters: host or cells: HEK-293; conditions: for hM4Di activation, concentration-response points: replicates
Method: (§1) The indicated amount of cDNA was transfected into HEK-293 cells using polyethylenimine (PEI; Sigma-Aldrich) in a 1–2 DNA:PEI ratio. Cell harvesting for radioligand binding experiments or signaling assays were performed approximately 48 h after transfection.
BRET assays were performed to detect receptor ligand-induced Gαo1 protein activation. […] Forty-eight hour after transfection cells were harvested, washed and resuspended in phosphate-buffered saline (PBS). Approximately, 200,000 cells/well were distributed in 96-well plates, and 5 µM Coelenterazine H (substrate for luciferase) was added to each well. Five minutes after addition of Coelenterazine H, ligands were added to each well. […] Results were calculated for the BRET change (BRET ratio for the corresponding drug minus BRET ratio in the absence of the drug) 5 min after the addition of the ligands.

hM3Dq [6] = target: T2, hM3Dq; experiment: Intracellular Ca2+ assay (GCaMP6f) in HEK-293 cells transfected with hM3Dq; assay type: cell-based; parameters: host or cells: HEK-293; conditions: for hM3Dq activation, concentration-response points: replicates
Method: as §1
Intracellular Ca^2+ concentration was monitored using the fluorescent Ca^2+ biosensor GCaMP6f. […] The net change in intracellular Ca^2+ concentration was expressed as F − F0 where F is the fluorescence at a given concentration of ligand and F0 is the average of the baseline values (fluorescence values of buffer-treated wells).

hM3Dq [7] = target: T2, hM3Dq
Excerpt: as §2, §3

WT mice = experiment: Locomotor activity in WT mice
Excerpt: as §2, §3

Question: What does the source list for CCN1CCN(C2=Nc3cc(Cl)ccc3Nc3c(F)cccc32)CC1 [JHU37160, 8-Chloro-11-(4-ethylpiperazin-1-yl)-4-fluoro-5H-dibenzo[b,e][1,4]diazepine]?
Answer: locomotor activity (hM4Di [1]; D1-hM4Di mice, 0.01 to 1 mg kg-1): selectively inhibiting locomotor activity; Locomotor activity, individual animals (Figure 3 Panel C) (hM4Di [1]; dose 0.01): 87.297 and 55.7522 and 80.3935 and 127.49 and 164.341 and 150.985 and 118.596 and 28.6623 and 109.457 and 25.9025 and 156.84; Locomotor activity, individual animals (Figure 3 Panel C) (hM4Di [1]; dose 0.1): 22.2583 and 26.4102 and 36.6386 and 50.3064 and 38.3173 and 43.9761 and 103.495 and 48.2345 and 24.5922 and 6.944 and 42.5594; Locomotor activity, individual animals (Figure 3 Panel C) (hM4Di [1]; dose 1): 71.4509 and 37.5721 and 8.672 and 75.5783 and 18.1309 and 89.8357 and 75.9222 and 7.305 and 23.6013 and 9.934 and 15.3384; functional response in HEK-293 cells lacking DREADDs [2]: no responses were observed; also recorded: did not produce any agonistic effect; functional response, BRET (Go-alpha-Rluc8, beta1, gamma2-mVenus), no DREADD [2]: did not show any functional response; functional response, GCaMP6f, no DREADD [2]: did not show any functional response; pKi (hM4Di [3]): 8.44; improved affinity compared to C21 (hM4Di [3]): ~ 25 fold; pKi (hM3Dq [4]): 8.72; pEC50 (hM4Di [5]; BRET-based assay in HEK-293 cells): 9.70; pEC50 (hM3Dq [6]; fluorescent assay in HEK-293 cells): 7.73; locomotor activity (hM3Dq [7]; D1-hM3Dq mice, 0.01 to 1 mg kg-1): selectively inhibiting locomotor activity; locomotor activity (WT mice; WT mice, 0.01 to 1 mg kg-1): without any significant locomotor effects; Locomotor activity, individual animals (Figure 3 Panel A) (WT mice; WT mice, dose 0.01): 15.4443 and 132.603 and 147.829 and 129.309 and 75.7603 and 45.5126 and 63.7894 and 145.958 and 96.1391 and 10.074 and 65.3531 and 48.0503 and 10.0356 and 25.3389 and 152.354 and 157.609 and 175.04; Locomotor activity, individual animals (Figure 3 Panel A) (WT mice; WT mice, dose 0.1): 28.3765 and 136.794 and 39.0145 and 128.13 and 27.5178 and 138.037 and 95.0881 and 162.364 and 107.636 and 24.3135 and 117.274 and 117.261 and 37.3098 and 136.435 and 99.1126 and 117.312 and 123.413; Locomotor activity, individual animals (Figure 3 Panel A) (WT mice; WT mice, dose 1): 10.497 and 121.35 and 79.3619 and 104.303 and 59.97 and 24.8262 and 41.2959 and 159.16 and 61.4696 and 5.601 and 141.242 and 63.7125 and 17.4822 and 64.5071 and 75.0041 and 144.933 and 145.945

Question: Which results are given for c1ccc2c(c1)N=C(N1CCNCC1)c1ccccc1N2 [C21]?
Answer: locomotor activity (hM4Di [1]; D1-hM4Di mice, 1 mg/kg): small but significant decrease in locomotor activity; behavior (hM4Di [1]; D1-hM4Di mice, 10 mg/kg): sedation; dose required to activate hM4Di (hM4Di [1]; rodents): at least 1 mg kg^-1; functional response in HEK-293 cells lacking DREADDs [2]: Neither clozapine nor C21 produced detectable functional responses; functional response, BRET (Go-alpha-Rluc8, beta1, gamma2-mVenus), no DREADD [2]: did not show any functional response; functional response, GCaMP6f, no DREADD [2]: did not show any functional response; pKi (hM4Di [3]; read-out: hM4Di Ki, [3H]clozapine competition, HEK-293 membranes): 7.04; less affinity than CLZ (hM3Dq [4]; DREADDs in HEK-293 cells): 100 fold; pKi (hM3Dq [4]; read-out: affinity (approximate, for equipotent concentrations), DREADD not specified): ~6.70; pKi (hM3Dq [4]; read-out: hM3Dq Ki): 6.64; hM4Di activation, concentration-response points (hM4Di [5]; Log [compound] -4): 96.8817; hM4Di activation, concentration-response points (hM4Di [5]; Log [compound] -4.5): 116.397; hM4Di activation, concentration-response points (hM4Di [5]; Log [compound] -5): 108.743 and 111.119 and 118.355; hM4Di activation, concentration-response points (hM4Di [5]; Log [compound] -6): 104.765 and 108.926 and 107.08; hM4Di activation, concentration-response points (hM4Di [5]; Log [compound] -7): 91.0167 and 106.137 and 98.8868; hM4Di activation, concentration-response points (hM4Di [5]; Log [compound] -8): 65.4069 and 99.8095 and 89.0469; hM4Di activation, concentration-response points (hM4Di [5]; Log [compound] -9): 48.391 and 67.2323 and 60.3348; hM4Di activation, concentration-response points (hM4Di [5]; Log [compound] -10): 22.6996 and 44.1322 and 29.3744; hM4Di activation, concentration-response points (hM4Di [5]; Log [compound] -12): 8.666; hM4Di activation, concentration-response points (hM4Di [5]; Log [compound] -15): 7.3972 and 3.296 and 3.683; Gi/o activation, potency relative to clozapine (hM4Di [5]; cells or tissue expressing hM4Di): less potent than clozapine; hM3Dq activation, concentration-response points (hM3Dq [6]; Log [compound] -5): 93.1143 and 77.3513 and 111.083; hM3Dq activation, concentration-response points (hM3Dq [6]; Log [compound] -6): 96.4744 and 82.7674 and 98.8645; hM3Dq activation, concentration-response points (hM3Dq [6]; Log [compound] -7): 74.044 and 103.149 and 78.6539; hM3Dq activation, concentration-response points (hM3Dq [6]; Log [compound] -8): 83.0838 and 91.1589 and 81.1662; hM3Dq activation, concentration-response points (hM3Dq [6]; Log [compound] -9): 6.817 and 0.07299 and 9.557; hM3Dq activation, concentration-response points (hM3Dq [6]; Log [compound] -10): -3.555 and -5.9944 and 2.166; hM3Dq activation, concentration-response points (hM3Dq [6]; Log [compound] -11): -13.1516 and -2.046 and 1.55; hM3Dq activation, concentration-response points (hM3Dq [6]; Log [compound] -12): -8.693 and -2.2785 and 8.813; hM3Dq-mediated intracellular Ca2+ increases (hM3Dq [6]; transfected HEK-293 cells): potent intracellular Ca^2+ increases comparable to that of clozapine; behavior (hM3Dq [7]; D1-hM3Dq mice, 10 mg/kg): seizure-like behavior; locomotor activity (hM3Dq [7]; D1-hM3Dq mice, 0.1 and 1 mg/kg): robust decrease of locomotor activity; lowest dose activating hM3Dq (hM3Dq [7]; rodents (rats and mice)): 0.1 mg/kg; locomotor activity / non-specific effects (WT mice; WT mice, 10 mg/kg): produced non-specific effects; doses producing off-target effects (WT mice; mice without DREADDs): higher than 1 mg kg^-1; locomotor activity (WT mice; mouse, in vivo): did not affect locomotor activity
